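Step 1: Grow cells in 96-well plates. Step 2: Expose to compound for 48 hours at 5 concentrations. Step 3: Interpolate endpoints linearly; if unreached, use highest concentration. Abbreviation: GI50, concentration required for 50% inhibition of growth.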 The source made the active and inactive calls. Cut-off read from the data, not from the text of the source: active = GI50 up to about 1.1 µM and inactive = higher. Where a SMILES comes first, the peptide text is derived from it. [ ]: non-standard residue; d: D form. The star is where a group is joined. Phe(4-NO2) = N[CH](Cc1ccc([N+](=O)[O-])cc1)C(=O)O; Boc = CC(C)(C)OC(=O)*; OBn = c1ccc(CO*)cc1
Experiments:
Experiment in all cases: NCI tumour cell line growth inhibition, 48 h
[1] = test system: UACC-62
[2] = test system: DU-145
[3] = test system: HOP-92
[4] = test system: EKVX
[5] = test system: OVCAR-5
[6] = test system: SNB-75
[7] = test system: OVCAR-4
[8] = test system: SF-295
[9] = test system: NCI-H23
[10] = test system: SR
[11] = test system: CAKI-1
[12] = test system: MDA-N
[13] = test system: OVCAR-8
[14] = test system: HL-60
[15] = test system: CCRF-CEM
[16] = test system: SK-MEL-28
[17] = test system: SK-MEL-2
[18] = test system: HT-29
[19] = test system: HCT-116
[20] = test system: SF-539

| SMILES | GI50 [1] | GI50 [2] | GI50 [3] | GI50 [4] | GI50 [5] | GI50 [6] | GI50 [7] | GI50 [8] | GI50 [9] | GI50 [10] | GI50 [11] | GI50 [12] | GI50 [13] | GI50 [14] | GI50 [15] | GI50 [16] | GI50 [17] | GI50 [18] | GI50 [19] | GI50 [20] |
| --- | --- | --- | --- | --- | --- | --- | --- | --- | --- | --- | --- | --- | --- | --- | --- | --- | --- | --- | --- | --- |
| CCOC(=O)Nc1cc2c(c(N)n1)N=C(c1ccc(OC)cc1)CN2 | < 0.0001 µM (active) | 0.000407 µM (active) | 0.508 µM (active) | 0.00104 µM (active) | 0.0158 µM (active) | 0.000188 µM (active) | 0.757 µM (active) | 0.000269 µM (active) | 0.0692 µM (active) | < 0.0001 µM (active) | < 0.0001 µM (active) | < 0.0001 µM (active) | 0.000895 µM (active) | 0.0015 µM (active) | 0.0016 µM (active) | 0.0057 µM (active) | < 0.01 µM (active) | 0.000637 µM (active) | 0.000251 µM (active) |  |
| Cc1occc1C(=S)Nc1ccc(Cl)c(C(=O)OC(C)C2CC2)c1 (stereo unspecified) | 22.8 µM (inactive) | 28.1 µM (inactive) | 23.5 µM (inactive) | 19.1 µM (inactive) | 23.4 µM (inactive) | 20.4 µM (inactive) | 15.3 µM (inactive) | 17.2 µM (inactive) | 15.6 µM (inactive) | 18.3 µM (inactive) | 18.7 µM (inactive) | 18.6 µM (inactive) | 18.3 µM (inactive) | 24.2 µM (inactive) | 50.1 µM (inactive) | 57.9 µM (inactive) | 18.3 µM (inactive) | 20.6 µM (inactive) | 26.5 µM (inactive) | 22.3 µM (inactive) |
| Nc1ccc(-c2nc3cc(F)ccc3s2)cc1Br | > 84.1 µM (inactive) | 55.7 µM (inactive) | 29.1 µM (inactive) | 2.71 µM (inactive) | 0.0904 µM (active) | 18.3 µM (inactive) | 23.8 µM (inactive) | 23.5 µM (inactive) |  | < 0.01 µM (active) | 3.99 µM (inactive) | > 100 µM (inactive) | 28.7 µM (inactive) | 4.71 µM (inactive) | > 100 µM (inactive) | > 100 µM (inactive) | > 89.5 µM (inactive) | 0.368 µM (active) | 0.0552 µM (active) | > 41.5 µM (inactive) |
| COc1ccc(CC/N=C2\OCc3ccccc32)cc1OC | 29.2 µM (inactive) | 32.4 µM (inactive) | 31.2 µM (inactive) | 76.2 µM (inactive) |  | 68.2 µM (inactive) | 59 µM (inactive) | 33.3 µM (inactive) | 32.7 µM (inactive) | 11.5 µM (inactive) | 62.4 µM (inactive) | 38.8 µM (inactive) | 91.8 µM (inactive) | 5.42 µM (inactive) | 29.1 µM (inactive) | > 100 µM (inactive) | 51.2 µM (inactive) | 32.1 µM (inactive) | 24 µM (inactive) | 20.7 µM (inactive) |
| NS(=O)(=O)c1c(O)c2ccccc2oc1=O | > 100 µM (inactive) | > 100 µM (inactive) | > 100 µM (inactive) | > 100 µM (inactive) | > 100 µM (inactive) | > 100 µM (inactive) | > 100 µM (inactive) | > 100 µM (inactive) | > 100 µM (inactive) | > 100 µM (inactive) | > 100 µM (inactive) | > 100 µM (inactive) | > 100 µM (inactive) | > 100 µM (inactive) | > 100 µM (inactive) | > 100 µM (inactive) | > 100 µM (inactive) | > 100 µM (inactive) | > 100 µM (inactive) | > 100 µM (inactive) |
| CC1=NN(c2nc(N)nc(CCl)n2)C(C)(C)C1 | 14.8 µM (inactive) | 35.1 µM (inactive) | 17.9 µM (inactive) | 12.9 µM (inactive) | 32 µM (inactive) | 24.3 µM (inactive) | 8.63 µM (inactive) | 25.7 µM (inactive) | 10.8 µM (inactive) | 15.8 µM (inactive) | 3.15 µM (inactive) | 31.5 µM (inactive) | 23.9 µM (inactive) | 4.69 µM (inactive) | 8.15 µM (inactive) | 34.1 µM (inactive) | 46.8 µM (inactive) | 29.9 µM (inactive) | 25.9 µM (inactive) | 18.9 µM (inactive) |
| Fc1cccc(F)c1C1SCC2=Nc3ccccc3CN21 (stereo unspecified) | 41 µM (inactive) | 60 µM (inactive) | 71.8 µM (inactive) | 79.6 µM (inactive) | 56 µM (inactive) | 18.7 µM (inactive) | > 100 µM (inactive) | 38.1 µM (inactive) | 39.8 µM (inactive) | 37.8 µM (inactive) | > 100 µM (inactive) | > 100 µM (inactive) |  | 44.2 µM (inactive) | > 100 µM (inactive) | > 100 µM (inactive) |  |  | 26.5 µM (inactive) | 26.7 µM (inactive) |
| O=C1SC(SCc2ccccc2)=NC12CC2c1ccccc1 (stereo unspecified) | 17.1 µM (inactive) | 29 µM (inactive) | 17.1 µM (inactive) | 20.2 µM (inactive) | 18.5 µM (inactive) | 29.2 µM (inactive) | 16 µM (inactive) | 19.7 µM (inactive) | 20.1 µM (inactive) | 21.3 µM (inactive) | 20 µM (inactive) | 20.9 µM (inactive) | 19.4 µM (inactive) | 3.56 µM (inactive) | 2.93 µM (inactive) | 19 µM (inactive) | 18.7 µM (inactive) | 21.3 µM (inactive) | 16.6 µM (inactive) | 20.7 µM (inactive) |
| COC(=O)CCC(NC(=O)OC(C)(C)C)C(=O)NC(Cc1ccc([N+](=O)[O-])cc1)C(=O)NCC(=O)OCc1ccccc1 (stereo unspecified) (Boc-Glu(OMe)-[Phe(4-NO2)]-Gly-OBn; configuration not given here) | > 31.6 µM (inactive) | > 100 µM (inactive) | 42.4 µM (inactive) | > 60.8 µM (inactive) | > 100 µM (inactive) | 18.6 µM (inactive) | > 92.3 µM (inactive) | > 48.5 µM (inactive) | > 78.9 µM (inactive) | > 53.8 µM (inactive) | > 65.6 µM (inactive) | > 100 µM (inactive) | 46.7 µM (inactive) | > 74.1 µM (inactive) | 99.3 µM (inactive) | > 100 µM (inactive) | > 77.1 µM (inactive) | > 100 µM (inactive) | > 100 µM (inactive) | 28.4 µM (inactive) |
| C=CCc1c(O)c2ccccc2[nH]c1=O |  | > 100 µM (inactive) | > 100 µM (inactive) | > 100 µM (inactive) | > 100 µM (inactive) | > 100 µM (inactive) | > 100 µM (inactive) | > 100 µM (inactive) | > 100 µM (inactive) | > 100 µM (inactive) | > 100 µM (inactive) | > 100 µM (inactive) | > 100 µM (inactive) | > 100 µM (inactive) | > 100 µM (inactive) | > 100 µM (inactive) |  | > 100 µM (inactive) | > 100 µM (inactive) | > 100 µM (inactive) |
| Cn1nc2c(c1N)Cc1c(nn(C)c1N)-c1ccccc1-2 | > 100 µM (inactive) | > 100 µM (inactive) | > 100 µM (inactive) | > 100 µM (inactive) | > 100 µM (inactive) |  | > 100 µM (inactive) | > 100 µM (inactive) | > 100 µM (inactive) | > 100 µM (inactive) | > 100 µM (inactive) | > 100 µM (inactive) | > 100 µM (inactive) | > 100 µM (inactive) | > 100 µM (inactive) | > 100 µM (inactive) | > 100 µM (inactive) | > 100 µM (inactive) | > 100 µM (inactive) | > 100 µM (inactive) |
| CC(=N)OC1CC2CCC1(C)C2(C)C (stereo unspecified) | > 100 µM (inactive) | > 100 µM (inactive) | > 100 µM (inactive) | > 100 µM (inactive) | > 100 µM (inactive) | > 100 µM (inactive) | > 100 µM (inactive) | > 100 µM (inactive) | > 100 µM (inactive) | > 100 µM (inactive) | > 100 µM (inactive) | > 100 µM (inactive) | > 100 µM (inactive) | > 100 µM (inactive) | > 100 µM (inactive) | > 100 µM (inactive) |  | > 100 µM (inactive) | > 100 µM (inactive) | > 100 µM (inactive) |
| NCCNc1ncnc2ccc(Cl)cc12 | 93.5 µM (inactive) | > 100 µM (inactive) | 93.5 µM (inactive) | > 100 µM (inactive) | > 100 µM (inactive) | 97.5 µM (inactive) | > 100 µM (inactive) | > 100 µM (inactive) | > 100 µM (inactive) | 45.7 µM (inactive) | > 100 µM (inactive) | 99.1 µM (inactive) | 74.1 µM (inactive) | > 100 µM (inactive) | > 100 µM (inactive) | > 100 µM (inactive) | > 100 µM (inactive) | 66.8 µM (inactive) | 67.8 µM (inactive) |  |
| CCOC(=O)c1c(CN2CCCC2)n(-c2ccccc2)c2cc(Br)c(O)cc12 | 16.7 µM (inactive) | 19.6 µM (inactive) | 20 µM (inactive) | 17 µM (inactive) | 19.1 µM (inactive) | 15.3 µM (inactive) | 14.3 µM (inactive) | 16.6 µM (inactive) | 19.3 µM (inactive) | 18.7 µM (inactive) | 17.1 µM (inactive) | 17.2 µM (inactive) | 22.9 µM (inactive) | 9.44 µM (inactive) | 2.06 µM (inactive) | 15.1 µM (inactive) | 18.3 µM (inactive) | 5.86 µM (inactive) | 16 µM (inactive) |  |
| CC(C)C/N=C(\N)N=C(N)N | > 100 µM (inactive) | > 100 µM (inactive) | > 100 µM (inactive) | > 100 µM (inactive) | > 100 µM (inactive) | > 100 µM (inactive) | > 100 µM (inactive) | > 100 µM (inactive) | > 100 µM (inactive) | > 100 µM (inactive) |  | > 100 µM (inactive) | > 100 µM (inactive) | > 100 µM (inactive) |  | > 100 µM (inactive) | > 100 µM (inactive) | > 100 µM (inactive) | > 100 µM (inactive) | > 100 µM (inactive) |
